Test results published in ChEMBL document CHEMBL1201862, “PubChem BioAssay data set” (2004).
The source made the active and inactive calls.

How the values were obtained:
[1] = cytotoxicity in HEK-293T cells, dose response, cytotoxicity control for BCR NF-kB inhibitor project, luminescence, B-cell screen hits (AID 489021); assay type: functional, cell-based;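 note: HEK-293T cells carrying an NF-kB luciferase reporter; cells exposed to compound for about 14 hours before viability readout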
Prothrombin = Prothrombin (Homo sapiens, UniProt P00734); experiment: Thrombin 1536 HTS Dose Response Confirmation. [Related pubchem assays: 1046 (Thrombin 1536 HTS; hits were confirmed in this assay)]; assay type: functional
[2] = HeLa 2N DNA content increase, dose response, cell-based, IC50 (AID 1117349); assay type: functional
[3] = HeLa 4N DNA content increase, dose response, cell-based, IC50 (AID 1117351); assay type: functional
[4] = inhibitors of PGC1a acetylation in cells, dose response, cell-based, cherry-picked samples (AID 720514); assay type: functional;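 note: potency may reflect raised or lowered acetylation signal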
[5] = cytotoxicity toward NIH3T3 fibroblasts, dose response, counter-screen, cell-based, ATP luminescence, mouse fibroblasts (AID 2010); assay type: functional;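 note: cells exposed to compound for about 90 hours before reading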
[6] = inhibitors of intracellular T. cruzi replication, confirmation, NIH3T3 host cells, beta-gal luminescence (AID 2044); assay type: functional, cell-based;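 note: intracellular parasites grown in NIH/3T3 mouse fibroblasts as host cells; luminescent beta-galactosidase reporter signal from transgenic T. cruzi replicating inside host cells; inhibitors lower the luminescence signal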
[7] = target: T1, Short transient receptor potential channel 4 (Mus musculus, UniProt Q9QUQ5); experiment: mouse TRPC4 channel activators, dose response, cell-based, HEK293 TRPC4/mu-opioid, Fluo-4 calcium (AID 434937); assay type: functional
T1 sequence (Q9QUQ5 whole entry): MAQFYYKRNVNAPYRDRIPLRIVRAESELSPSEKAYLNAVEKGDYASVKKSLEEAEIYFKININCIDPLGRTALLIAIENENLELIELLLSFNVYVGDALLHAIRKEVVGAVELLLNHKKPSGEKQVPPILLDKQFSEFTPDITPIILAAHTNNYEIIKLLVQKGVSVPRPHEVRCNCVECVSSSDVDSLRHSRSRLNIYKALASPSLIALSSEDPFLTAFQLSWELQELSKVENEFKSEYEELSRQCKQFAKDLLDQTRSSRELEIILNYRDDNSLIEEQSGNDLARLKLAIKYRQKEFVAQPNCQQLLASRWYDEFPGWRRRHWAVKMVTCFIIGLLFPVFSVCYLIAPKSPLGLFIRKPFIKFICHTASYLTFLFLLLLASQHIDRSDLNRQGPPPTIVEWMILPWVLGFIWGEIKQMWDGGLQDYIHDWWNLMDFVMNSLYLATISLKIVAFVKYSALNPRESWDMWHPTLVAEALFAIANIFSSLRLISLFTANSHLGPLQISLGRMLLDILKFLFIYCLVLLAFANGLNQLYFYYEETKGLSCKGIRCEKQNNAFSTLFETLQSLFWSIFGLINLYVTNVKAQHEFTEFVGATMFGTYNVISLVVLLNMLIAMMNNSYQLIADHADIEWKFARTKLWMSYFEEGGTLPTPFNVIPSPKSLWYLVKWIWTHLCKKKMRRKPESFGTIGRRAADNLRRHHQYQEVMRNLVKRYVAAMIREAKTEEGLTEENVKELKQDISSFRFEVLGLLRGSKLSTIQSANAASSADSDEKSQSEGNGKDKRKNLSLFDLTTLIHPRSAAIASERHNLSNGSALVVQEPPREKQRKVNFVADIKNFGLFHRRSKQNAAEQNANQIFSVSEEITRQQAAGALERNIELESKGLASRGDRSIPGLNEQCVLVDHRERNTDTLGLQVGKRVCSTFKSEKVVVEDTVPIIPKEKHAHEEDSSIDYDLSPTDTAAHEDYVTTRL

[8] = target: T1, Short transient receptor potential channel 4; experiment: mouse TRPC4 channel inhibitors, dose response, cell-based, HEK293 TRPC4/mu-opioid, Fluo-4 calcium (AID 434942); assay type: functional;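 note: potency of inhibitors blocking the TRPC4 calcium response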
[9] = Luminescence-based dose response cell-based high throughput screening assay for cytotoxic compounds using the IEC-6 intestinal epithelial cell line. [Related pubchem assays: 1858 (Summary AID.), 1825 (Counterscreen.), 1907 (Confirmation screen.)]; assay type: functional
Hexokinase HKDC1 = target: T2, Hexokinase HKDC1 (Homo sapiens, UniProt Q2TB90); experiment: HKDC1 hexokinase inhibitors, dose response, biochemical, W721R variant (AID 504729); assay type: functional
T2 sequence (Q2TB90 whole entry): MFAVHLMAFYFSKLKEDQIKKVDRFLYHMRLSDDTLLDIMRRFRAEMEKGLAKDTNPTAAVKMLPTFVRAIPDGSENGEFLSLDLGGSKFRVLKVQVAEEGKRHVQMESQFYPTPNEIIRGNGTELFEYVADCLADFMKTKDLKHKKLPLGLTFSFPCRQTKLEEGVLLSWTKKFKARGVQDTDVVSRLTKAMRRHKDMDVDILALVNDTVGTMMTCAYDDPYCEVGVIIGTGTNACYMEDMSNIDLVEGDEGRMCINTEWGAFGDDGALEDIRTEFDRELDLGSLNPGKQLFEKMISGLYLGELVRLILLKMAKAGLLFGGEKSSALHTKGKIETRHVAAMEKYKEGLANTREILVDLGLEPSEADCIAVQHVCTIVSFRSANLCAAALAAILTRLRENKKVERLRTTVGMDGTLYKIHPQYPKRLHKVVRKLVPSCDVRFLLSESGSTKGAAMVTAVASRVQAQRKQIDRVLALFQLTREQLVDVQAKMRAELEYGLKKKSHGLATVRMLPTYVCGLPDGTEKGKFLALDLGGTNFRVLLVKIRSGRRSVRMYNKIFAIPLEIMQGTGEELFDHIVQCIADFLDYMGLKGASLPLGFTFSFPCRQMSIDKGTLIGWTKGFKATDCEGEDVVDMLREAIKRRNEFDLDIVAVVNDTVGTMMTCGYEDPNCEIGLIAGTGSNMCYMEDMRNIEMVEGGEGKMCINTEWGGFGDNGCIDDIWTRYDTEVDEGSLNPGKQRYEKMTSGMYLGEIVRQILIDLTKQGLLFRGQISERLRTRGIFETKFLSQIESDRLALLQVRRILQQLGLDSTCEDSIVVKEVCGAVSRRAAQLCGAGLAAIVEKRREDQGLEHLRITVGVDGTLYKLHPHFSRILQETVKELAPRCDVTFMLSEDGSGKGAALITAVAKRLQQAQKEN

## O=C(NNC(=O)C12CC3CC(CC(C3)C1)C2)c1cccc(O)c1
[1]
  IC50: > 80 µM (inactive)

## O=C(COc1ccc(S(=O)(=O)Nc2ccccc2)cc1)N1CCOCC1
Prothrombin
  IC50: > 50 µM (not active)

## CCCCCCCCCCCCCCCCNc1ccc(C(=O)O)cc1 [CETABEN]
[2]
  IC50: > 10 µM (inactive)
[3]
  IC50: > 10 µM (inactive)

## CC(=O)c1sc2ccccc2c1OC(=O)c1ccco1
Prothrombin
  IC50: 2.17 µM (active)

## COc1cccc(-n2c(Cc3cc(O)nc(O)n3)nnc2SCc2cccc(C(F)(F)F)c2)c1
[4]
  AC50: 35.1 µM (active)

## Cc1ccccc1Nc1nc(NCc2ccco2)c2ccccc2n1
[5]
  EC50: > 60 µM (not active)
[6]
  EC50: < 0.1 µM (active)
cells
  EC50: 0.023 µM (active)
[7]
  EC50: 5.96 µM (active)
[8]
  EC50: 1.06 µM (active)

## CN1CCC(NCCC(c2ccc(F)cc2)c2ccc(Cl)cc2)CC1 (stereo not drawn)
[9]
  IC50: 5.34 µM (active)

## COC1=CC(=O)C(OC)=C(OC)C1=O
Hexokinase HKDC1
  IC50: 2.56 µM (active)
